The target in the experiment is T1, human TRPV4 (Homo sapiens, UniProt Q9HBA0).
T1 construct: expressed in transfected cells; host or cells: HEK-293-MSR-II cells transduced with 1% BacMam virus
The experiment in a line: Ligand-gated assay (Fluo4 calcium, FLIPR; inhibition of agonist-induced activation). It is filed as cell-based. As to conditions: HEK-293-MSR-II cells transduced with BacMam human TRPV4; agonist at EC80. The procedure:
TRP channel activation/opening results in an influx of divalent and monovalent cations including calcium. The resulting changes in intracellular calcium were monitored using a calcium selective fluorescent dye Fluo4 (MDS Analytical Technologies). Dye loaded cells were initially exposed to test compound to verify a lack of agonist activity. Cells were subsequently activated by addition of an agonist and inhibition of the agonist-induced activation was recorded. Human embryonic kidney 293 cells stably expressing the macrophage scavenger receptor class II (HEK-293-MSR-II) and transduced with 1% BacMam (J. P. Condreay, S. M. Witherspoon, W. C. Clay and T. A. Kost, Proc Natl Acad Sci 96 (1999), pp. 127-132) virus expressing the human TRPV4 gene were plated at 15000 cells/well in a volume of 50 μL in a 384 well poly-D lysine coated plate. Cells were incubated for 24 hours at 37 degrees and 5% CO2. Media was then aspirated using a Tecan Plate-washer and replaced with 20 μL of dye loading buffer: HBSS, 500 uM Brilliant Black (MDS Analytical Technologies), 2 uM Fluo-4. Dye loaded plates were then incubated in the dark at room temperature for 1-1.5 hours. 10 μL of test compound diluted in HBSS (HBSS with 1.5 mM Calcium Chloride, 1.5 mM Magnesium Chloride and 10 mM HEPES. pH 7.4), +0.01% Chaps was added to the plate, incubated for 10 min at room temperature in the dark and then 10 μL of agonist was added at a final concentration equal to the agonist EC80. Calcium release was measured using the FLIPRtetra (MDS Analytical Technologies) or FLIPR384 (MDS Analytical Technologies).
IC50 between 0.1-10 nM (+++), >10-50 nM (++), >50-500 nM (+).

The structures appear in SMILES notation. pIC50: −log10 of the molar value.

Our source for the IC50 values is US9187464B2, “TRPV4 antagonists” (GlaxoSmithKline Intellectual Property (No. 2) Limited, priority 2011, dated 2015).

As usually defined, the pIC50 is −log10 of the IC50, conventionally taken in molar units.

T1 sequence (Q9HBA0 whole entry): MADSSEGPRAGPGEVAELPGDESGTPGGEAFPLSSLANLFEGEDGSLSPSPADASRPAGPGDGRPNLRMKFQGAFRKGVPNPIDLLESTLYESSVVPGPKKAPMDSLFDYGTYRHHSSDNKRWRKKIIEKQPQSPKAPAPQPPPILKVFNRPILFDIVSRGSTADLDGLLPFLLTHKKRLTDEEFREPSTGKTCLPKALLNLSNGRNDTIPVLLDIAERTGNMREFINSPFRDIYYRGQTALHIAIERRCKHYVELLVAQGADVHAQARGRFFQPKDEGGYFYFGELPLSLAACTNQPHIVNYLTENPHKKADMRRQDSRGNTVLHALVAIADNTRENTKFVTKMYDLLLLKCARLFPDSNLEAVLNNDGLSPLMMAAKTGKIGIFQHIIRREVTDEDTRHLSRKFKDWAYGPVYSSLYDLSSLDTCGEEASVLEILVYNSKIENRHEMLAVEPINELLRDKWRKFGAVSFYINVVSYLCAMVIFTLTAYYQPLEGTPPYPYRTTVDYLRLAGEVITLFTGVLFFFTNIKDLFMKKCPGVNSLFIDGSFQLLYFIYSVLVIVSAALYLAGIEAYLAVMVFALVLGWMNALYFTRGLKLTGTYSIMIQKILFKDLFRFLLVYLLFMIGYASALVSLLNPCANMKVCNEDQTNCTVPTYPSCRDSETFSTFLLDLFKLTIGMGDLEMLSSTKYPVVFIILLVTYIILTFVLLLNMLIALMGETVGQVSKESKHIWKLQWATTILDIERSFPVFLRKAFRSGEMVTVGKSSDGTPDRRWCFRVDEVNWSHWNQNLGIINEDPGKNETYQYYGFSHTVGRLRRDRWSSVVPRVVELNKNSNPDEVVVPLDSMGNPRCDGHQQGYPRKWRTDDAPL

As to `CC(C)(C)OC(=O)OCC(C)(C)c1cc(N2C[C@@]3(CCC[C@](C)(Cn4cnc5ccc(C#N)cc54)C3)OC2=O)on1` [Example 20, Tert-butyl (2-(5-((5S,7S)-7-((6-cyano-1H-benzo[d]imidazol-1-yl)methyl)-7-methyl-2-oxo-1-oxa-3-azaspiro[4.5]decan-3-yl)isoxazol-3-yl)-2-methylpropyl) carbonate], the negative logarithm of the IC50 (pIC50) was 8.00 to 10.00.

`CC(C)(CO)c1cc(N2C[C@@]3(CCC[C@](C)(Cn4cnc5ccc(C#N)cc54)C3)OC2=O)on1` [Example 21, 1-(((5S,7S)-3-(3-(1-Hydroxy-2-methylpropan-2-yl)isoxazol-5-yl)-7-methyl-2-oxo-1-oxa-3-azaspiro[4.5]decan-7-yl)methyl)-1H-benzo[d]imidazole-6-carbonitrile]: the negative-log IC50 (pIC50) is 6.30 to 7.30.

As for `COc1cc(OC)c(N2C[C@@]3(CCC[C@](C)(Cn4cnc5ccc(C#N)cc54)C3)OC2=O)cn1` [Example 22, 1-(((5S,7S)-3-(4,6-Dimethoxyipyridin-3-yl)-7-methyl-2-oxo-1-oxa-3-azasbiro[4.5]decan-7-yl)methyl)-1H-benzo[d]imidazole-6-carbonitrile], the pIC50 was 8.00 to 10.00.

For `CCOc1cc(C)c(N2C[C@@]3(CCC[C@H](Cn4cnc5ccc(C#N)cc54)C3)OC2=O)cn1` [Example 23, 1-(((5S,7S)-3-(6-Ethoxy-4-methylpyridin-3-yl)-2-oxo-1-oxa-3-azasbiro[4.5]decan-7-yl)methyl)-1H-benzo[d]imidazole-6-carbonitrile], the pIC50 is 7.30 to 8.00.

Consider `CCOc1cc(C)c(N2C[C@@]3(CCC[C@](C)(Cn4cnc5ccc(C#N)cc54)C3)OC2=O)nn1` [Example 24, 1-(((5S,7S)-3-(6-Ethoxy-4-methylpyridazin-3-yl)-7-methyl-2-oxo-1-oxa-3-azaspiro[4.5]decan-7-yl)methyl)-1H-benzo[d]imidazole-6-carbonitrile], for which the negative-log IC50 (pIC50) is 8.00 to 10.00.

As for `C[C@]1(Cn2cnc3ccc(C#N)cc32)CCC[C@@]2(CN(c3cnc(C(F)(F)F)nc3)C(=O)O2)C1` [Example 25, 1-(((5S,7S)-7-Methyl-2-oxo-3-(2-(trifluoromethyl)pyrimidin-5-yl)-1-oxa-3-azaspiro[4.5]decan-7-yl)methyl)-1H-benzo[d]imidazole-6-carbonitrile], the negative-log IC50 (pIC50) was 8.00 to 10.00.

Turning to `C[C@]1(Cn2cnc3ccc(C#N)cc32)CCC[C@@]2(CN(c3ncccc3C(F)(F)F)C(=O)O2)C1` [Example 26, 1-(((5S,7S)-7-Methyl-2-oxo-3-(3-(trifluoromethyl)pyridin-2-yl)-1-oxa-3-azaspiro[4.5]decan-7-yl)methyl)-1H-benzo[d]imidazole-6-carbonitrile], the negative logarithm of the IC50 (pIC50) is 6.30 to 7.30.

As to `N#Cc1ccc2ncn(C[C@H]3CCC[C@]4(C3)CN(Cc3csc5ccc(Cl)cc35)C(=O)O4)c2c1` [Example 27, 1-({(5S,7S)-3-[(5-Chloro-1-benzothien-3-yl)methyl]-2-oxo-1-oxa-3-azaspiro[4.5]dec-7-yl}methyl)-1H-benzimidazole-6-carbonitrile], the negative-log IC50 (pIC50) is 8.00 to 10.00.

As for `CCOC(C)c1noc(C(C)(C)CN2C[C@@]3(CCC[C@H](Cn4cnc5ccc(C#N)cc54)C3)OC2=O)n1` (stereo partly drawn) [Example 28, 1-{[(5S,7S)-3-(2-{3-[1-(Ethyloxy)ethyl]-1,2,4-oxadiazol-5-yl}-2-methylpropyl)-2-oxo-1-oxa-3-azaspiro[4.5]dec-7-yl]methyl}-1H-benzimidazole-6-carbonitrile], the pIC50 is 8.00 to 10.00.

Regarding `Cc1ccc(N2C[C@@]3(CCC[C@](C)(Cn4cnc5ccc(C#N)cc54)C3)OC2=O)nc1` [Example 29, 1-{[(5S,7S)-7-methyl-3-(5-methyl-2-pyridinyl)-2-oxo-1-oxa-3-azaspiro[4.5]dec-7-yl]methyl}-1H-benzimidazole-6-carbonitrile], the negative-log IC50 (pIC50) is 7.30 to 8.00.

In the case of `CC(C)c1cc(N2C[C@@]3(CCC[C@](C)(Cn4cnc5ccc(C#N)cc54)C3)OC2=O)on1` [Example 30, 1-({(5S,7S)-7-methyl-3-[3-(1-methylethyl)-5-isoxazolyl]-2-oxo-1-oxa-3-azaspiro[4.5]dec-7-yl}methyl)-1H-benzimidazole-6-carbonitrile], the pIC50 was 7.30 to 8.00.
